Measured values taken from ChEMBL document CHEMBL5390218, “Benzimidazole derivatives as tubulin polymerization inhibitors: Design, synthesis and in vitro cytotoxicity studies” (Bioorg Med Chem Lett, 2023).
Calls of active or inactive are those of the source. The rule behind the calls is not given here.

Assays:
SK-MEL-28 [1] = assay: Induction of mitochondrial membrane potential depolarization in human SK-MEL-28 cells assessed as J-monomer level by measuring green fluorescence intensity at 2.5 uM incubated for 48 hrs by JC-1 staining based analysis (reference value: 0.8%); type: functional
SK-MEL-28 [2] = assay: Induction of apoptosis in human SK-MEL-28 cells assessed as necrotic cells at 5 uM incubated for 24 hrs by Annexin V-FITC/PI staining based flow cytometry analysis (reference value: 0.1%); type: functional
SK-MEL-28 [3] = assay: Induction of cell cycle arrest in human SK-MEL-28 cells assessed as accumulation of cells at G2 phase at 2.5 uM measured after 48 hrs by PI staining based flow cytometry (reference value: 9.17%); type: functional
SK-MEL-28 [4] = assay: Induction of cell cycle arrest in human SK-MEL-28 cells assessed as accumulation of cells at G2 phase at 5 uM measured after 48 hrs by PI staining based flow cytometry (reference value: 9.17%); type: functional
Tubulin (Homo sapiens) [5] = target: T1, Tubulin (Homo sapiens) (UniProt P68371+Q9H4B7+P0DPH7+P68366+Q13509+Q71U36+P04350+Q3ZCM7+P07437+P68363+Q9BQE3+Q6PEY2+Q13885+Q9BVA1+Q9BUF5); assay: Inhibition of tubulin polymerization (unknown origin) incubated for 1 hr; type: protein-complex assay; conditions: dose 0.75-12 µM
Tubulin (Homo sapiens) [6] = target: T1, Tubulin (Homo sapiens); assay: Inhibition of tubulin polymerization (unknown origin) at 12 uM incubated for 1 hr relative to control; type: protein-complex assay
SK-MEL-28 [7] = assay: Induction of morphological changes in human SK-MEL-28 cells assessed as membrane blebbing by ethidium bromide/acridine orange staining based analysis; type: functional, cell-based; conditions: dose 1-5 µM
SK-MEL-28 [8] = assay: Induction of apoptosis in human SK-MEL-28 cells assessed as late apoptotic cells at 1 uM incubated for 24 hrs by Annexin V-FITC/PI dual staining based flow cytometry analysis (reference value: 0.1%); type: functional
SK-MEL-28 [9] = assay: Induction of cell cycle arrest in human SK-MEL-28 cells assessed as accumulation of cells at S phase at 1 uM measured after 48 hrs by PI staining based flow cytometry (reference value: 16.5%); type: functional
SK-MEL-28 [10] = assay: Induction of morphological changes in human SK-MEL-28 cells assessed as cell shrinkage by ethidium bromide/acridine orange staining based analysis; type: functional; conditions: dose 1-5 µM
SK-MEL-28 [11] = assay: Induction of morphological changes in human SK-MEL-28 cells assessed as bright pyknotic nuclei at 1 to 5 uM measured after 48 hrs DAPI staining based analysis; type: functional, cell-based; conditions: dose 1-5 µM
Tubulin (Homo sapiens) [12] = target: T1, Tubulin (Homo sapiens); assay: Inhibition of tubulin polymerization (unknown origin) at 6 uM incubated for 1 hr relative to control; type: protein-complex assay
SK-MEL-28 [13] = assay: Induction of morphological changes in human SK-MEL-28 cells assessed as chromatin condensation at 1 to 5 uM measured after 48 hrs DAPI staining based analysis; type: functional, cell-based; conditions: dose 1-5 µM
[14] = Selectivity index, ratio of IC50 for NRK-52E cells to ratio of IC50 for human SK-MEL-28 cells
SK-MEL-28 [15] = assay: Induction of ROS generation in human SK-MEL-28 cells by DCFDA staining based analysis; type: functional, cell-based; conditions: dose 1-5 µM
SK-MEL-28 [16] = assay: Induction of morphological changes in human SK-MEL-28 cells assessed as bright fragmented nuclei at 1 to 5 uM measured after 48 hrs DAPI staining based analysis; type: functional, cell-based; conditions: dose 1-5 µM
[17] = Selectivity index, ratio of IC50 for NRK-52E cells to ratio of IC50 for human HCT-116 cells; type: toxicity; conditions: rat (NRK-52E), NRK-52E cells versus HCT-116 cells, read-out: Selectivity Index
SK-MEL-28 [18] = assay: Induction of mitochondrial membrane potential changes in human SK-MEL-28 cells assessed as J-aggregate level by measuring red fluorescence intensity at 1 uM incubated for 48 hrs by JC-1 staining based analysis (reference value: 98.9%); type: functional
SK-MEL-28 [19] = assay: Inhibition of cell migration in human SK-MEL-28 cells at 1 to 5 uM incubated for 0 to 48 hrs by wound healing assay; type: functional, cell-based; conditions: dose 1-5 µM, time 0-48 hrs
SK-MEL-28 [20] = assay: Induction of mitochondrial membrane potential changes in human SK-MEL-28 cells assessed as J-aggregate level by measuring red fluorescence intensity at 5 uM incubated for 48 hrs by JC-1 staining based analysis (reference value: 98.9%); type: functional
[21] = Cytotoxicity against NRK-52E cells assessed as inhibition in cell growth measured after 72 hrs by MTT assay; type: toxicity, cell-based; conditions: rat
Tubulin (Homo sapiens) [22] = target: T1, Tubulin (Homo sapiens); assay: Inhibition of tubulin polymerization (unknown origin) at 1.5 uM incubated for 1 hr relative to control; type: protein-complex assay
Tubulin (Homo sapiens) [23] = target: T1, Tubulin (Homo sapiens); assay: Inhibition of tubulin polymerization (unknown origin) at 3 uM incubated for 1 hr relative to control; type: protein-complex assay
SK-MEL-28 [24] = assay: Induction of cell cycle arrest in human SK-MEL-28 cells assessed as accumulation of cells at S phase at 5 uM measured after 48 hrs by PI staining based flow cytometry (reference value: 16.5%); type: functional

SMILES: COc1cc(-c2nc3cc(F)ccc3[nH]2)ccc1OCC(=O)N1CCc2ccccc21
- Activity (SK-MEL-28 [1]): 3.2%
- Activity (SK-MEL-28 [2]): 13%
- Activity (SK-MEL-28 [3]): 24.82%
- Activity (SK-MEL-28 [4]): 26.05%
- inhibition (Tubulin (Homo sapiens) [5]): Dose-Dependent Effect
- inhibition (Tubulin (Homo sapiens) [6]): 64.1%
- Activity (SK-MEL-28 [7]): Dose-Dependent Effect
- Activity (SK-MEL-28 [8]): 10.7%
- Activity (SK-MEL-28 [9]): 22.3%
- Activity (SK-MEL-28 [10]): Dose-Dependent Effect
- Activity (SK-MEL-28 [11]): Active
- inhibition (Tubulin (Homo sapiens) [12]): 52.4%
- Activity (SK-MEL-28 [13]): Active
- Selectivity Index [14]: 20
- Activity (SK-MEL-28 [15]): Dose-Dependent Effect
- Activity (SK-MEL-28 [16]): Active
- selectivity ratio [17]: 7.7
- Activity (SK-MEL-28 [18]): 97.9%
- inhibition (SK-MEL-28 [19]): Active
- Activity (SK-MEL-28 [20]): 85.1%
- IC50 at 72 h [21]: 53.8 µM
- inhibition (Tubulin (Homo sapiens) [22]): 35.1%
- inhibition (Tubulin (Homo sapiens) [23]): 47.4%
- Activity (SK-MEL-28 [24]): 25.66%
